From PMC6733504, “Effects of flavoring compounds used in electronic cigarette refill liquids on endothelial and vascular function” (PLoS ONE, 2019)

Assays:
[1] = tested on: endothelium-denuded rat aortic rings; test: cAMP and cGMP levels in endothelium-denuded aortic rings
Source text: 1 S4 Table. […]
2 endothelium-denuded rat aortic rings.
Flavoring (fmol x mg-1) (fmol x mg-1)
4 En d o th e liu m-denuded rings, treated with test compounds as described in the
5 Materials and methods section of the main text, were freeze-clamped when maximal
6 relaxation had been reached. Rings were homogenized in 5% trichloroacetic acid
7 and analyzed for cAMP and cGMP by radioimmunoassay. Forskolin and DEA/NO
8 were used to induce maximal accumulation of cAMP and cGMP, respectively. Data
9 shown are mean values±SEM of 3 (forskolin and DEA/NO) or 6 (basal,
10 cinnamaldehyde and eugenol) rings; n.d., not determined, *p<0.05 vs. basal (ANOVA
11 and Dunnett's post hoc test).

[2] = tested on: endothelial cells; test: MTT to formazan conversion (viability); format: cell-based, porcine; conditions: 1 mM, 60 minutes
Procedure: The viability of endothelial cells was judged by incubation with 1 mM of the flavoring compounds, followed by determination of 3-(4,5-dimethyl-2-thiazolyl)-2,5-diphenyltetrazolium bromide (MTT) to formazan conversion using the Cayman MTT Cell Proliferation Assay Kit purchased through VWR International (Vienna, Austria).

[3] = tested on: endothelium-denuded rat aortic rings; test: CaCl2-induced contractile response in endothelium-denuded aortic rings; conditions: Ca2+-free high K+ solution, CaCl2 0.156-2.5 mM
Procedure: Rings were treated with Ca2+-
4 free high K+ solution (containing 0.1 mM EG TA a n d 6 0 mM K+). The Ca2+-free
5 preparations were then cumulatively contracted with CaCl2 (0.156-2.5 mM) in the
6 absence or presence of cinnamaldehyde or eugenol. The established L-type Ca2+
9 Concentration-response curves obtained with different ring segments from a single
10 animal were averaged and counted as an individual experiment. Data are expressed
11 as mean values ±SEM ( n=3).
(1 picture or pasted object on this page, not shown here)

[4] = biological target: T1, NO synthase (NOS) (Sus scrofa, UniProt Q28969); test: Endothelial L-citrulline formation (NOS activity in intact cells); format: cell-based, porcine; conditions: for Direct effect on NOS-catalyzed L-citrulline formation: 1 mM, absence of A23187 (S1 Fig)
T1 construct: endogenous in cells; host or cells: primary porcine aortic endothelial cells (up to 3 passages)
T1 sequence (Q28969 1-1205): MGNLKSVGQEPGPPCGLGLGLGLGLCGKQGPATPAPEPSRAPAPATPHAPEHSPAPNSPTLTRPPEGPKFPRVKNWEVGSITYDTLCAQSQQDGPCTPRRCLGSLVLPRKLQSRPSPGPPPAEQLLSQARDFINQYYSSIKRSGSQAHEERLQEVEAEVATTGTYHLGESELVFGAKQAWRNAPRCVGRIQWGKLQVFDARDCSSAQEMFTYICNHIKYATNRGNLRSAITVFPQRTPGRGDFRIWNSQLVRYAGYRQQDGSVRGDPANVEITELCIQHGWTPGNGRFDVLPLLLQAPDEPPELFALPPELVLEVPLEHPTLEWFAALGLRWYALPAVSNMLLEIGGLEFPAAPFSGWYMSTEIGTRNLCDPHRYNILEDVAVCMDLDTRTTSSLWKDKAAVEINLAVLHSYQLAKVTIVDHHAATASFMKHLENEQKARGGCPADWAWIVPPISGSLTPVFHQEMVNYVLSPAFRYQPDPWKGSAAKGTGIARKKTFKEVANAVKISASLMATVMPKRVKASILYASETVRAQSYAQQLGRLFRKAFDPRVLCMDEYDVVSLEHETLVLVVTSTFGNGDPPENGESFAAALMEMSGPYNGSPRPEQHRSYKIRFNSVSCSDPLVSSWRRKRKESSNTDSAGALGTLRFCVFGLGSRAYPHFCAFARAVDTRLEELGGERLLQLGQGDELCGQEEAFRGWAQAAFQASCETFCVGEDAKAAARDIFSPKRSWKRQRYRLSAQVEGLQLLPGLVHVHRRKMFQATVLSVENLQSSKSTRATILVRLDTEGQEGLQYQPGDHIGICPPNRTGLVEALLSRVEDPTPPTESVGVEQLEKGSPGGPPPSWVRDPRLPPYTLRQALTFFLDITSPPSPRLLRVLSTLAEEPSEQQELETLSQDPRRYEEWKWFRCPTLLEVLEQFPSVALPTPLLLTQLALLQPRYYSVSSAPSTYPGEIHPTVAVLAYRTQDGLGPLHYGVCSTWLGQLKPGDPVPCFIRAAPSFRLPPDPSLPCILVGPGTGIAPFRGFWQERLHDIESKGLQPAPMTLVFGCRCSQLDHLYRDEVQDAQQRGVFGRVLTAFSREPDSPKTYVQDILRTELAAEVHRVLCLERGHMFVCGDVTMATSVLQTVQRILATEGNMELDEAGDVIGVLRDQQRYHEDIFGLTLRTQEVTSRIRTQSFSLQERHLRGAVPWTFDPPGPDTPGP
Procedure: NO synthase (NOS) activity in intact cells was determined by monitoring the conversion of L-[^3H]arginine into L-[^3H]citrulline as previously described. […] Subsequent to lysis of the cells with 0.01 M HCl, an aliquot was removed for determination of incorporated radioactivity. To the remaining sample, 200 mM sodium acetate buffer ([…]) containing 10 mM L-citrulline was added (final pH ~5.0), and L-[^3H]citrulline was separated from L-[^3H]arginine by cation exchange chromatography.

SMILES | cAMP ([1]; 1 mM) [fmol x mg-1] | cGMP ([1]; 1 mM) [fmol x mg-1] | cAMP ([1]; 10 mM) [fmol x mg-1] | cGMP ([1]; 10 mM) [fmol x mg-1] | Formazan formation (% of control) [2] | Effect on CaCl2-induced contraction [3] | Concentration inhibiting Ca2+-stimulated NO synthase activation [4] [mM] | Direct effect on NOS-catalyzed L-citrulline formation [4] | Effect on A23187-stimulated L-citrulline formation (endothelial NOS activity) ([4]; 0.3 and 1.0 mM (Fig 2A))
O=C/C=C/c1ccccc1 [Cinnamaldehyde, (2E)-3-Phenylprop-2-enal] | 200±36 | 127±10 | 161±7 | 86±7 | 91±2.6 % of control | significantly inhibited | ≥ 0.3 | neither eugenol nor cinnamaldehyde increased | significantly inhibited
C=CCc1ccc(O)c(OC)c1 [Eugenol, 2-Methoxy-4-(prop-2-en-1-yl)phenol] | 162±9 | 81±4 | 171±24 | 71±18 | 107±4.6 % of control | significantly inhibited | – | neither eugenol nor cinnamaldehyde increased | –
